Measured values as given in patent publication US10385057B2, “Pyrazole compounds and methods of making and using same” (Lundbeck La Jolla Research Center, Inc., priority 2015, dated 2019).

Experiments:
MAGL = molecular target: T1, MAGL (Mus musculus, UniProt O35678); experiment: In vitro competitive activity-based protein profiling, mouse MAGL; assay type: biochemical; conditions: for inhibition at 1 µM: read-out: MAGL % inh. 1 μM (mouse)
T1 construct: mouse brain membrane fraction or cell lysates for mouse assays; from tissue
T1 sequence (O35678 1-303): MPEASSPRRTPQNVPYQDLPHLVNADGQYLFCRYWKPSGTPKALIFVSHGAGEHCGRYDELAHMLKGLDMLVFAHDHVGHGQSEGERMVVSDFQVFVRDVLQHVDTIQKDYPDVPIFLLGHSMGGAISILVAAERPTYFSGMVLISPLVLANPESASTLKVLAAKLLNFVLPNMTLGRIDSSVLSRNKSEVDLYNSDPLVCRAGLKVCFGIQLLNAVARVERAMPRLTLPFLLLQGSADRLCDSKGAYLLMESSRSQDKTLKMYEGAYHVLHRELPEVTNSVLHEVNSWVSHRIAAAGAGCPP
Protocol: (§1) In Vitro Competitive Activity-Based Protein Profiling.
(§2) Proteomes (mouse brain membrane fraction or cell lysates for mouse assays; human prefrontal cortex or cell membrane fractions for human assays) (50 μL, 1.0 mg/mL total protein concentration) were preincubated with varying concentrations of inhibitors at 37° C. After 30 min, FP-Rh or HT-01 (1.0 μL, 50 μM in DMSO) was added and the mixture was incubated for another 30 min at 37° C. Reactions were quenched with SDS loading buffer (15 μL—4×) and run on SDS-PAGE. Following gel imaging, serine hydrolase activity was determined by measuring fluorescent intensity of gel bands corresponding to MAGL and FAAH using ImageJ 1.43u software.

FAAH = molecular target: T2, FAAH (Mus musculus, UniProt O08914); experiment: In vitro competitive activity-based protein profiling, mouse FAAH; assay type: biochemical; conditions: for inhibition at 1 µM: read-out: FAAH % inh. 1 μM (mouse)
T2 construct: mouse brain membrane fraction or cell lysates for mouse assays; from tissue
T2 sequence (O08914 1-579): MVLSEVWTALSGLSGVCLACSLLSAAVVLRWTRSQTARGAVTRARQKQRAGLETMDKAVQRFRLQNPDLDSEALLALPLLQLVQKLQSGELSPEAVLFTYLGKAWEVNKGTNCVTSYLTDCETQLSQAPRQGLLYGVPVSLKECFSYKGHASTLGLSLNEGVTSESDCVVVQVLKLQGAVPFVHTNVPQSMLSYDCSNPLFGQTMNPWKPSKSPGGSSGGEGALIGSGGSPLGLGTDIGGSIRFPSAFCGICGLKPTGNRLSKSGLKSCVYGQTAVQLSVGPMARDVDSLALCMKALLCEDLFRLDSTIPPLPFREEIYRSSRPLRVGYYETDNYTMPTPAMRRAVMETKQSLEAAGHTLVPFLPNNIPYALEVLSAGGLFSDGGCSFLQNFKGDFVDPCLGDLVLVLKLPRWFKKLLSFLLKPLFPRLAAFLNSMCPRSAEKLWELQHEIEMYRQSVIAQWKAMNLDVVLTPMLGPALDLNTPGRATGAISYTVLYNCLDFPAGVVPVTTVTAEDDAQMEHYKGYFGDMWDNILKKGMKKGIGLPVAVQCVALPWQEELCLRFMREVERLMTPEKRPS
Protocol: as §1, §2

Structure (SMILES)	inhibition at 1 µM (MAGL) [%]	inhibition at 1 µM (FAAH) [%]	IC50 (MAGL) [nM]	IC50 (FAAH) [nM]	inhibition at 10 µM (MAGL; 10 μM, read-out: MAGL % inh. at 10 μM (mouse)) [%]	inhibition at 10 µM (FAAH; 10 μM, read-out: FAAH % inh. at 10 μM (mouse)) [%]
O=C(c1cnn(C(=O)N2CC3CN(Cc4cccc(C(F)(F)F)c4)CC3C2)c1)N1CCN(C2CC2)CC1 (stereo not shown) [Example 8, (4-cyclopropylpiperazin-1-yl)(1-(5-(3-(trifluoromethyl)benzyl)octahydropyrrolo[3,4-c]pyrrole-2-carbonyl)-1H-pyrazol-4-yl)methanone]	≥ 75	≥ 75	–	–	–	–
O=C(c1cnn(C(=O)N2CC3CN(Cc4cc(Cl)cc(C(F)(F)F)c4)CC3C2)c1)N1CCCC1 (stereo not shown) [Example 9, (5-(3-chloro-5-(trifluoromethyl)benzyl)hexahydropyrrolo[3,4-c]pyrrol-2(1H)-yl)(4-(pyrrolidine-1-carbonyl)-1H-pyrazol-1-yl)methanone]	≥ 75	≥ 75	–	–	–	–
O=C(c1cnn(C(=O)N2CC3CN(Cc4cc(Cl)cc(C(F)(F)F)c4)CC3C2)c1)N1CCOCC1 (stereo not shown) [Example 10, (5-(3-chloro-5-(trifluoromethyl)benzyl)hexahydropyrrolo[3,4-c]pyrrol-2(1H)-yl)(4-(morpholine-4-carbonyl)-1H-pyrazol-1-yl)methanone]	≥ 75	≥ 75	–	–	–	–
O=C(c1cnn(C(=O)N2CC3CN(Cc4cc(Cl)cc(C(F)(F)F)c4)CC3C2)c1)N1CCN(C2CC2)CC1 (stereo not shown) [Example 11, (5-(3-chloro-5-(trifluoromethyl)benzyl)hexahydropyrrolo[3,4-c]pyrrol-2(1H)-yl)(4-(4-cyclopropylpiperazine-1-carbonyl)-1H-pyrazol-1-yl)methanone]	≥ 75	≥ 75	–	–	–	–
O=C(c1cnn(C(=O)N2CC3CN(Cc4ccc(N5CCOCC5)cc4C(F)(F)F)CC3C2)c1)N1CCCC1 (stereo not shown) [Example 12, (5-(4-morpholino-2-(trifluoromethyl)benzyl)hexahydropyrrolo[3,4-c]pyrrol-2(1H)-yl)(4-(pyrrolidine-1-carbonyl)-1H-pyrazol-1-yl)methanone]	≥ 75	≥ 75	–	–	–	–
O=C(c1cnn(C(=O)N2CC3CN(Cc4ccc(N5CCOCC5)cc4C(F)(F)F)CC3C2)c1)N1CCOCC1 (stereo not shown) [Example 13, (4-(morpholine-4-carbonyl)-1H-pyrazol-1-yl)(5-(4-morpholino-2-(trifluoromethyl)benzyl)hexahydropyrrolo[3,4-c]pyrrol-2(1H)-yl)methanone]	≥ 75	≥ 75	–	–	–	–
O=C(c1cnn(C(=O)N2CC3CN(Cc4ccc(N5CCOCC5)cc4C(F)(F)F)CC3C2)c1)N1CCN(C2CC2)CC1 (stereo not shown) [Example 14, (4-cyclopropylpiperazin-1-yl)(1-(5-(4-morpholino-2-(trifluoromethyl)benzyl)octahydropyrrolo[3,4-c]pyrrole-2-carbonyl)-1H-pyrazol-4-yl)methanone]	≥ 75	≥ 75	100 to 1000	1000 to 10000	–	–
O=C(c1cnn(C(=O)N2CC3CN(Cc4cccc(C(F)(F)F)c4)CC3C2)c1)N1CCCC1 (stereo not shown) [Example 15, pyrrolidin-1-yl(1-(5-(3-(trifluoromethyl)benzyl)octahydropyrrolo[3,4-c]pyrrole-2-carbonyl)-1H-pyrazol-4-yl)methanone]	≥ 75	≥ 75	–	–	–	–
NC(=O)c1cnn(C(=O)N2CC3CN(Cc4ccc(Cl)cc4)CC3C2)c1 (stereo not shown) [Example 16, 1-(5-(4-chlorobenzyl)octahydropyrrolo[3,4-c]pyrrole-2-carbonyl)-1H-pyrazole-4-carboxamide]	≥ 75	≥ 75	100 to 1000	≤ 100	–	–
CNC(=O)c1cnn(C(=O)N2CC3CN(Cc4ccc(Cl)cc4)CC3C2)c1 (stereo not shown) [Example 17, 1-(5-(4-chlorobenzyl)octahydropyrrolo[3,4-c]pyrrole-2-carbonyl)-N-methyl-1H-pyrazole-4-carboxamide]	50 to 75	≥ 75	1000 to 10000	≤ 100	–	–
NC(=O)c1cnn(C(=O)N2CC3CN(Cc4ccc(C(F)(F)F)cc4)CC3C2)c1 (stereo not shown) [Example 18, 1-(5-(4-(trifluoromethyl)benzyl)octahydropyrrolo[3,4-c]pyrrole-2-carbonyl)-1H-pyrazole-4-carboxamide]	≥ 75	≥ 75	≤ 100	≤ 100	–	–
CNC(=O)c1cnn(C(=O)N2CC3CN(Cc4ccc(C(F)(F)F)cc4)CC3C2)c1 (stereo not shown) [Example 19, N-methyl-1-(5-(4-(trifluoromethyl)benzyl)octahydropyrrolo[3,4-c]pyrrole-2-carbonyl)-1H-pyrazole-4-carboxamide]	≥ 75	≥ 75	100 to 1000	≤ 100	–	–

Second part, the compound after the results:

inhibition at 1 µM (MAGL) [%]	inhibition at 1 µM (FAAH) [%]	IC50 (MAGL) [nM]	IC50 (FAAH) [nM]	inhibition at 10 µM (MAGL; 10 μM, read-out: MAGL % inh. at 10 μM (mouse)) [%]	inhibition at 10 µM (FAAH; 10 μM, read-out: FAAH % inh. at 10 μM (mouse)) [%]	Structure (SMILES)
≥ 75	≥ 75	≤ 100	≤ 100	–	–	NC(=O)c1cnn(C(=O)N2CC3CN(Cc4cc(Cl)ccc4Cl)CC3C2)c1 (stereo not shown) [Example 20, 1-(5-(2,5-dichlorobenzyl)octahydropyrrolo[3,4-c]pyrrole-2-carbonyl)-1H-pyrazole-4-carboxamide]
≥ 75	≥ 75	100 to 1000	≤ 100	–	–	CNC(=O)c1cnn(C(=O)N2CC3CN(Cc4cc(Cl)ccc4Cl)CC3C2)c1 (stereo not shown) [Example 21, 1-(5-(2,5-dichlorobenzyl)octahydropyrrolo[3,4-c]pyrrole-2-carbonyl)-N-methyl-1H-pyrazole-4-carboxamide]
≥ 75	≥ 75	–	–	–	–	O=C(c1cnn(C(=O)N2CC3CN(Cc4cc(Cl)ccc4Cl)CC3C2)c1)N1CCCC1 (stereo not shown) [Example 22, (5-(2,5-dichlorobenzyl)hexahydropyrrolo[3,4-c]pyrrol-2(1H)-yl)(4-(pyrrolidine-1-carbonyl)-1H-pyrazol-1-yl)methanone]
≥ 75	≥ 75	–	–	–	–	NC(=O)c1cnn(C(=O)N2CC3CN(Cc4cccc(C(F)(F)F)c4)CC3C2)c1 (stereo not shown) [Example 23, 1-(5-(3-(trifluoromethyl)benzyl)octahydropyrrolo[3,4-c]pyrrole-2-carbonyl)-1H-pyrazole-4-carboxamide]
≥ 75	≥ 75	≤ 100	≤ 100	–	–	CNC(=O)c1cnn(C(=O)N2CC3CN(Cc4cccc(C(F)(F)F)c4)CC3C2)c1 (stereo not shown) [Example 24, N-methyl-1-(5-(3-(trifluoromethyl)benzyl)octahydropyrrolo[3,4-c]pyrrole-2-carbonyl)-1H-pyrazole-4-carboxamide]
≥ 75	≥ 75	≤ 100	≤ 100	–	–	NC(=O)c1cnn(C(=O)N2CC3CN(Cc4cc(Cl)cc(C(F)(F)F)c4)CC3C2)c1 (stereo not shown) [Example 25, 1-(5-(3-chloro-5-(trifluoromethyl)benzyl)octahydropyrrolo[3,4-c]pyrrole-2-carbonyl)-1H-pyrazole-4-carboxamide]
≥ 75	≥ 75	–	–	–	–	CNC(=O)c1cnn(C(=O)N2CC3CN(Cc4cc(Cl)cc(C(F)(F)F)c4)CC3C2)c1 (stereo not shown) [Example 26, 1-(5-(3-chloro-5-(trifluoromethyl)benzyl)octahydropyrrolo[3,4-c]pyrrole-2-carbonyl)-N-methyl-1H-pyrazole-4-carboxamide]
≥ 75	≥ 75	–	–	–	–	CNC(=O)c1cnn(C(=O)N2CC3CN(Cc4ccc(N5CCOCC5)cc4C(F)(F)F)CC3C2)c1 (stereo not shown) [Example 27, N-methyl-1-(5-(4-morpholino-2-(trifluoromethyl)benzyl)octahydropyrrolo[3,4-c]pyrrole-2-carbonyl)-1H-pyrazole-4-carboxamide]
25 to 50	≥ 75	–	–	–	–	O=C(c1cnn(C(=O)N2CCC3(CCN(Cc4cc(Cl)ccc4Cl)C3)C2)c1)N1CCCC1 (stereo not shown) [Example 28, (1-(7-(2,5-dichlorobenzyl)-2,7-diazaspiro[4.4]nonane-2-carbonyl)-1H-pyrazol-4-yl)(pyrrolidin-1-yl)methanone]
0 to 25	≥ 75	–	–	100	100	O=C(c1cnn(C(=O)N2CCC3(CCN(Cc4cc(Cl)ccc4Cl)C3)C2)c1)N1CCOCC1 (stereo not shown) [Example 29, (1-(7-(2,5-dichlorobenzyl)-2,7-diazaspiro[4.4]nonane-2-carbonyl)-1H-pyrazol-4-yl)(morpholino)methanone]
